pIC50: −log10 of the molar value.
Molecular target: T1, MAGL (Homo sapiens, UniProt Q99685)
T1 sequence (Q99685 1-303): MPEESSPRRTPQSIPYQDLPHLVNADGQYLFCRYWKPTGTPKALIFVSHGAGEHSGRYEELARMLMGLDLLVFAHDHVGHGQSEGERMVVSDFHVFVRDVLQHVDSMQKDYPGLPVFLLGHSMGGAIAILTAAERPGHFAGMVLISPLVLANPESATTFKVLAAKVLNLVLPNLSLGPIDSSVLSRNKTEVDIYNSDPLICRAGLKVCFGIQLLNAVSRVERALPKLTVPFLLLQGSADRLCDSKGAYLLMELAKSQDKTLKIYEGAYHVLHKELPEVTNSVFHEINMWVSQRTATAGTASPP
Assay: 2-AG assay (MAGL inhibitory activity, hydrolysis of 2-arachidonoylglycerol to arachidonic acid followed by mass spectrometry)
Type: biochemical
Settings: 8 μM 2-arachidonoylglycerol, 15 min pre-incubation, 30 min incubation at RT, RapidFire MS readout
Description: Compounds of formula (I) were profiled for MAGL inhibitory activity by determining the enzymatic activity by following the hydrolysis of the natural substrate 2-arachidonoylglycerol (2-AG) resulting in arachidonic acid, which can be followed by mass spectrometry. This assay is hereinafter abbreviated “2-AG assay”.
Compounds of formula (I) were profiled for MAGL inhibitory activity by determining the enzymatic activity by following the hydrolysis of the natural substrate 2-arachidonoylglycerol (2-AG) resulting in arachidonic acid, which can be followed by mass spectrometry. This assay is hereinafter abbreviated “2-AG assay”. The 2-AG assay was carried out in 384 well polypropylene assay plates. […] Compound dilutions were added to MAGL protein in assay buffer (50 mM TRIS, 1 mM EDTA, 0.01% (v/v) Tween-20, 2.5% (v/v) DMSO). After shaking, the plate was incubated for 15 min at RT. To start the reaction, 2-arachidonoylglycerol in assay buffer was added. The final concentrations in the assay was […] for MAGL protein and 8 μM 2-arachidonoylglyerol. After shaking and 30 min incubation at RT, the reaction was quenched by the addition of two assay volumes of acetonitrile containing 4 μM of d8-arachidonic acid. The amount of arachidonic acid formed was traced by an online SPE system (Agilent Rapidfire) coupled to a triple quadrupole mass spectrometer. A C18 SPE cartridge (Agilent G9205A) was used in an acetonitrile/water liquid setup. The mass spectrometer was operated in negative electrospray mode following the mass transitions 303.1→259.1 for arachidonic acid and 311.1→267.0 for d8-arachidonic acid. The activity of the compounds was calculated based on the ratio of intensities [arachidonic acid/d8-arachidonic acid].

Row | Structure (SMILES) | pIC50
1 | O=C(N1CC(c2ccc(C3(N4CCOCC4)CC3)cc2)C1)N1CC2(CC(n3cnc(C4CC4)n3)C2)C1 [Example 34, [6-(3-cyclopropyl-1,2,4-triazol-1-yl)-2-azaspiro[3.3]heptan-2-yl]-[3-[4-(1-morpholinocyclopro-pyl)phenyl]azetidin-1-yl]methanone] | 8.24
2 | CC(F)(F)c1ccc(C2CN(C(=O)N3CC4(CC(n5cnc(C6CC6)n5)C4)C3)C2)cc1 [Example 35] | 7.70
3 | O=C(N1CC(c2ccc(CC(F)(F)F)cc2)C1)N1CC2(CC(n3cnc(C4CC4)n3)C2)C1 [Example 37, [6-(3-cyclopropyl-1,2,4-triazol-1-yl)-2-azaspiro[3.3]heptan-2-yl]-[3-[4-(2,2,2-trifluoroethyl)phenyl]azetidin-1-yl]methanone] | 7.61
4 | O=C(N1CC(c2ccc(C3CC3)cc2F)C1)N1CC2(CC(n3cnc(C4CC4)n3)C2)C1 [Example 38, [3-(4-cyclopropyl-2-fluoro-phenyl)azetidin-1-yl]-[6-(3-cyclopropyl-1,2,4-triazol-1-yl)-2-azaspiro[3.3]heptan-2-yl]methanone] | 9.22
5 | N#Cc1cc(C2CN(C(=O)N3CC4(CC(n5cnc(C6CC6)n5)C4)C3)C2)ccc1OC(F)(F)F [Example 39, 5-[1-[6-(3-cyclopropyl-1,2,4-triazol-1-yl)-2-azaspiro[3.3]heptane-2-carbonyl]azetidin-3-yl]-2-(trifluoromethoxy) benzonitrile] | 8.62
6 | O=C(N1CC2(CC(Oc3ccc(C(F)(F)F)cn3)C2)C1)N1CC2(CC(n3cnc(C4CC4)n3)C2)C1 [Example 52, [6-(3-cyclopropyl-1,2,4-triazol-1-yl)-2-azaspiro[3.3]heptan-2-yl]-[6-[[5-(trifluoromethyl)-2-pyridyl]oxy]-2-azaspiro[3.3]heptan-2-yl]methanone] | 9.40
7 | O=C(N1CC(c2ccc(OC(F)(F)F)c(Cl)c2)C1)N1CC2(CC(n3cnc(C4CC4)n3)C2)C1 [Example 53, [3-[3-chloro-4-(trifluoromethoxy)phe-nyl]azetidin-1-yl]-[6-(3-cyclopropyl-1,2,4-triazol-1-yl)-2-azaspiro[3.3]heptan-2-yl]methanone] | 9.15
8 | O=C(N1CC2(CC(Oc3ccc(OC(F)(F)F)cc3)C2)C1)N1CC2(CC(n3cnc(C4CC4)n3)C2)C1 [Example 54, [6-(3-cyclopropyl-1,2,4-triazol-1-yl)-2-azaspiro[3.3]heptan-2-yl]-[6-[4-(trifluoromethoxy)phe-noxy]-2-azaspiro[3.3]heptan-2-yl]methanone] | 8.92
9 | O=C(N1CC2(CC(Oc3ccnc(C(F)(F)F)n3)C2)C1)N1CC2(CC(n3cnc(C4CC4)n3)C2)C1 [Example 55, [6-(3-cyclopropyl-1,2,4-triazol-1-yl)-2-azaspiro[3.3]heptan-2-yl]−[6-[2-(trifluoromethyl)pyrimidin-4-yl]oxy-2-azaspiro[3.3]heptan-2-yl]methanone] | 8.74
10 | O=C(N1CC2(CC(Oc3ccc(OC(F)F)nc3)C2)C1)N1CC2(CC(n3cnc(C4CC4)n3)C2)C1 [Example 56, (6-(3-cyclopropyl-1H-1,2,4-triazol-1-yl)-2-azaspiro[3.3]heptan-2-yl)(6-((6-(difluoromethoxy)pyridin-3-yl)oxy)-2-azaspiro[3.3]heptan-2-yl)methanone] | 8.60
11 | O=C(N1CC2(CC(Oc3cc(C(F)(F)F)ncn3)C2)C1)N1CC2(CC(n3cnc(C4CC4)n3)C2)C1 [Example 57, [6-(3-cyclopropyl-1,2,4-triazol-1-yl)-2-azaspiro[3.3]heptan-2-yl]-[6-[6-(trifluoromethyl)pyrimidin-4-yl]oxy-2-azaspiro[3.3]heptan-2-yl]methanone] | 8.60
12 | O=C(N1CC2(CC(Oc3nccc(C(F)(F)F)n3)C2)C1)N1CC2(CC(n3cnc(C4CC4)n3)C2)C1 [Example 58, [6-(3-cyclopropyl-1,2,4-triazol-1-yl)-2-azaspiro[3.3]heptan-2-yl]-[6-[4-(trifluoromethyl)pyrimidin-2-yl]oxy-2-azaspiro[3.3]heptan-2-yl]methanone] | 8.59
13 | O=C(N1CC2(CC(Oc3ccc(F)cc3F)C2)C1)N1CC2(CC(n3cnc(C4CC4)n3)C2)C1 [Example 59, (6-(3-cyclopropyl-1H-1,2,4-triazol-1-yl)-2-azaspiro[3.3]heptan-2-yl)(6-(2,4-difluorophenoxy)-2-azaspiro[3.3]heptan-2-yl)methanone] | 8.59

More lines, in order of rising pIC50, values ahead:

Row | pIC50 | Structure (SMILES)
14 | 9.40 | O=C(N1CC(c2ccc(OC(F)(F)F)c(F)c2)C1)N1CC2(CC(n3cnc(C4CC4)n3)C2)C1 [Example 36, [6-(3-cyclopropyl-1,2,4-triazol-1-yl)-2-azaspiro[3.3]heptan-2-yl]-[3-[3-fluoro-4-(trifluoromethoxy)phenyl]azetidin-1-yl]methanone]
15 | 9.52 | O=C(N1CC(OCc2ccc(S(F)(F)(F)(F)F)cc2F)C1)N1CC2(CC(n3cnc(C4CC4)n3)C2)C1 [Example 49]
16 | 9.52 | O=C(N1CC2(CC(Cc3ccc(F)c(F)c3)C2)C1)N1CC2(CC(n3cnc(C4CC4)n3)C2)C1 [Example 50, (6-(3-cyclopropyl-1H-1,2,4-triazol-1-yl)-2-azaspiro[3.3]heptan-2-yl)(6-(3,4-difluorobenzyl)-2-azaspiro[3.3]heptan-2-yl)methanone]
17 | 9.52 | O=C(N1CC2(CC(Oc3cncc(C(F)(F)F)n3)C2)C1)N1CC2(CC(n3cnc(C4CC4)n3)C2)C1 [Example 51, (6-(3-cyclopropyl-1H-1,2,4-triazol-1-yl)-2-azaspiro[3.3]heptan-2-yl)(6-((6-(trifluoromethyl)pyrazin-2-yl)oxy)-2-azaspiro[3.3]heptan-2-yl)methanone]
18 | 9.70 | CC(C)(C)c1ccc(C2CN(C(=O)N3CC4(CC(n5cnc(C6CC6)n5)C4)C3)C2)cc1 [Example 44, [3-(4-tert-butylphenyl)azetidin-1-yl]-[6-(3-cyclopropyl-1,2,4-triazol-1-yl)-2-azaspiro[3.3]heptan-2-yl]methanone]
19 | 9.70 | O=C(N1CC2(CC(Oc3ccc(F)cc3Cl)C2)C1)N1CC2(CC(n3cnc(C4CC4)n3)C2)C1 [Example 45, [6-(2-chloro-4-fluoro-phenoxy)-2-azaspiro[3.3]heptan-2-yl]-[6-(3-cyclopropyl-1,2,4-triazol-1-yl)-2-azaspiro[3.3]heptan-2-yl]methanone]
20 | 9.70 | O=C(N1CC2(CC(Oc3cc(F)cc(C(F)(F)F)c3)C2)C1)N1CC2(CC(n3cnc(C4CC4)n3)C2)C1 [Example 46, (6-(3-cyclopropyl-1H-1,2,4-triazol-1-yl)-2-azaspiro[3.3]heptan-2-yl)(6-(3-fluoro-5-(trifluoromethyl)phenoxy)-2-azaspiro[3.3]heptan-2-yl)methanone]
21 | 9.70 | N#Cc1cc(OC(F)(F)F)ccc1OC1CC2(C1)CN(C(=O)N1CC3(CC(n4cnc(C5CC5)n4)C3)C1)C2 [Example 47]
22 | 9.70 | O=C(N1CC(c2ccc(C3(C(F)(F)F)CC3)cc2)C1)N1CC2(CC(n3cnc(C4CC4)c3)C2)C1 [Example 48, [6-(4-cyclopropylimidazol-1-yl)-2-azaspiro[3.3]heptan-2-yl]-[3-[4-[1-(trifluoromethyl)cyclo-propyl]phenyl]azetidin-1-yl]methanone]
23 | 10.00 | O=C(N1CC2(CC(Oc3ccc(OC(F)(F)F)cc3F)C2)C1)N1CC2(CC(n3cnc(C4CC4)n3)C2)C1 [Example 42, [6-(3-cyclopropyl-1,2,4-triazol-1-yl)-2-azaspiro[3.3]heptan-2-yl]−[6-[2-fluoro-4-(trifluoromethoxy)phenoxy]-2-azaspiro[3.3]heptan-2-yl]methanone]
24 | 10.00 | O=C(N1CC2(CC(Oc3ccc(C(F)(F)F)cc3)C2)C1)N1CC2(CC(n3cnc(C4CC4)n3)C2)C1 [Example 43, [6-(3-cyclopropyl-1,2,4-triazol-1-yl)-2-azaspiro[3.3]heptan-2-yl]-[6-[4-(trifluoromethyl)phenoxy]-2-azaspiro[3.3]heptan-2-yl]methanone]
25 | 10.40 | O=C(N1CC2(CC(Cc3ccc(F)cc3F)C2)C1)N1CC2(CC(n3cnc(C4CC4)n3)C2)C1 [Example 41, [6-(3-cyclopropyl-1,2,4-triazol-1-yl)-2-azaspiro[3.3]heptan-2-yl]-[6-[(2,4-difluorophenyl)methyl]-2-azaspiro[3.3]heptan-2-yl]methanone]
26 | 10.52 | COc1cc(C(F)(F)F)ccc1CC1CC2(C1)CN(C(=O)N1CC3(CC(n4cnc(C5CC5)n4)C3)C1)C2 [Example 40, [6-(3-cyclopropyl-1,2,4-triazol-1-yl)-2-azaspiro[3.3]heptan-2-yl]−[6-[[2-methoxy-4-(trifluoromethyl)phenyl]methyl]-2-azaspiro[3.3]heptan-2-yl]methanone]

Source: US20240199587A1, “HETEROCYCLIC COMPOUNDS” (Hoffmann-La Roche Inc., priority 2021, published 2024)
